Data from US20080004271A1, “Inhibitors of TNFalpha, PDE4 and B-RAF, compositions thereof and methods of use therewith” (priority 2006, published 2008).

Assays:
[1] = molecular target: T1, V600E mutant B-RAF (Homo sapiens, UniProt P15056, V600E); test: V600E Mutant B-RAF 33P Assay; assay type: biochemical
T1 construct: purchased Upstate
Description: Substrate (HIS-MEK1 K97M) is prepared by Celgene Corp. as described above.
Test compound is diluted in 100% DMSO (600 μM). […] Substrate mixture is prepared as 7.5 μM HIS-MEK1 K97M in assay buffer. ATP mixture is prepared as 300 μM ATP, 75 mM MgCl2, 0.05 μCi/μl ^33P ATP in assay buffer.
In a 96 well assay plate (Falcon Polylpropylene well U-bottom), the following are added to each well: 2.5 μl of test compound solution (serial dilutions), 20 μl of substrate mixture and 17.5 μl of enzyme mixture. The plate is incubated for at least 15 minutes. 10 μl of ATP mixture is added and the plate is incubated at room temperature for about 60 minutes. 80 μl of 12.5% TCA is added to each well, and the plate is incubated for at least 20 minutes. The contents of the plate is transferred to a glass fiber filter plate (Millipore) using a Packard Harvester (washing 10× with 1×PBS). 50 μl of Scintillation-20 fluid is added to each well. The plate is read using a Packard TopCount.

[2] = system: A375 cells; test: Alamar Blue Viability Assay; assay type: cell-based; conditions: 3 days
Description: A375 cells (ATCC # CRL-1619; Passage 4˜15; doubling time is roughly 18 hours) are used. Culture medium is DMEM (high glucose, with L-glutamine)+10% FBS+Pen/Strep. Cells are passed every three days at 1:20.
200 μl of medium only is added into all wells along the edges of a 96-well flat bottom plate and 180 μl of cell suspension (containing 1,000 cells) per well is added into the plate with a Low Evaporation Lid (Costar Cat # 3595). The cells are cultured overnight. Compounds and controls are diluted according to standard compound dilution protocol described below. From 30 mM stock solution, 10 mM, 3 mM, 1 mM, and 0.3 mM solutions in 100% DMSO are prepared using the following serial dilution protocol:
The 30, 10, 3, 1 and 0.3 mM solutions are diluted 1:50 (DMSO:medium) by adding 4 μl of each to 196 μl of culture medium. This yields 600 μM, 200 μM, 60 μM, 20 μM, and 6 μM secondary stock solutions. 4 μl of DMSO are added to 196 μl medium for the DMSO control as well. 20 μl of compound dilutions, including the DMSO control locations (Row G, Columns 2-10 are DMSO control wells), are added in triplicate to the cells in the 96-well plate using a repeat pipettor (see plate layout below). This yields final concentrations of 60 μM, 20 μM, 6 μM, 2 μM, and 0.6 μM containing 0.2% DMSO in each well. The plate is gently tapped to evenly distribute compound within the well. The plate is incubated at 5% CO2 at 37° C. for 3 days.
20 μl of Alamar Blue (Biosource #DAL-1100) is added to each well. The plate is incubated in 5% CO2 incubator for 4 hours. Fluorescence is measured with excitation wavelength at 530 nm and emission wavelength at 590 nm using a Victor 2 multilabel plate reader (Perkin Elmer). Data is saved with plate format as a Text file and entered into ActivityBase (Cell-based SAR; Prolif-Alamar; MTT 5 plates unfixed fit) to calculate the percent of DMSO values for each compound set of triplicate wells and IC50 curves are plotted.

T1 sequence (P15056 whole entry V600E): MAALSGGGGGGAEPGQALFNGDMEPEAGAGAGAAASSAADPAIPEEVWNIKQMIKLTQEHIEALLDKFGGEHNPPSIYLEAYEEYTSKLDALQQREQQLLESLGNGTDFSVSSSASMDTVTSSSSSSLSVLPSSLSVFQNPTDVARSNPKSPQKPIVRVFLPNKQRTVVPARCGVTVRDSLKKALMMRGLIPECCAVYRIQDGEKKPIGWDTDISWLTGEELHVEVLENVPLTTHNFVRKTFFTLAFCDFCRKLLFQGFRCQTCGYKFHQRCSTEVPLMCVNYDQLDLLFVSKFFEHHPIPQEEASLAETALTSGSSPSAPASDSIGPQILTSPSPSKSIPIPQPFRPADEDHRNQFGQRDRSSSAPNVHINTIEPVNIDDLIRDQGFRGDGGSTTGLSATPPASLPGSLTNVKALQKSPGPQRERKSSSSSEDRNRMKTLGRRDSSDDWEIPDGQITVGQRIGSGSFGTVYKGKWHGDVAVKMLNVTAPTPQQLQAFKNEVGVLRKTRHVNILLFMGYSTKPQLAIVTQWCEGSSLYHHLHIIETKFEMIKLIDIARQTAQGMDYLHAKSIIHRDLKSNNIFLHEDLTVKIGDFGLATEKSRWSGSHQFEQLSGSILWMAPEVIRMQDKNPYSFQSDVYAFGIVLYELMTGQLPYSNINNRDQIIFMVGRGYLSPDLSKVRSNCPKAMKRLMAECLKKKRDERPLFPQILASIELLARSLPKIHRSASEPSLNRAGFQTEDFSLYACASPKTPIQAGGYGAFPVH

Row | SMILES | IC50 [1] [µM] | IC50 ([2]; Homo sapiens, A-375, 72 h) [µM] | IC50 [2] [µM]
1 | NC(=O)c1sc2nc(NC3CC3)nc(-c3ccnc(Cl)c3)c2c1N [Example 236] | 0.1 to 10 | 30 to 60 | –
2 | NC(=O)Cc1nc(-c2ccc(Cl)c(Cl)c2)c2c(N)c(C(N)=O)sc2n1 [Example 254] | 0.1 to 10 | > 60 | –
3 | NC(=O)c1sc2nc(NC3CC3)nc(-c3c(F)cccc3F)c2c1N [Example 187] | 0.1 to 10 | 20 to 30 | –
4 | NC(=O)c1sc2nc(NC3CC3)nc(-c3ccc(O)nc3)c2c1N [Example 170] | 30 to 60 | > 60 | –
5 | NC(=O)c1sc2nc(NC3CC3)nc(-c3ccccc3F)c2c1N [Example 186] | 0.1 to 10 | 20 to 30 | –
6 | NC(=O)c1sc2nc(NC3CC3)nc(-c3cccc(N)c3)c2c1N [Example 245] | – | > 60 | –
7 | NC(=O)c1sc2nc(NC3CC3)nc(Nc3ccccc3)c2c1N [Example 278] | 10 to 20 | 30 to 60 | –
8 | NC(=O)c1nc(-c2ccc(Cl)c(Cl)c2)c2c(N)c(C(N)=O)sc2n1 [Example 268] | 0.1 to 10 | 30 to 60 | –
9 | NC(=O)c1sc2nc(NC3CC3)nc(-c3cccc(NC(=O)C(F)(F)F)c3)c2c1N [Example 246] | 10 to 20 | > 60 | –
10 | NC(=O)c1sc2nc(NC3CC3)nc(-c3ccc(OCc4ccccc4)nc3)c2c1N [Example 168] | 0.1 to 10 | 20 to 30 | –
11 | C[C@H](O)[C@H](C)Oc1nc(-c2ccc(Cl)c(Cl)c2)c2c(N)c(C(N)=O)sc2n1 [Example 213] | 0.1 to 10 | > 60 | –
12 | NC(=O)c1sc2nc(NC3CC3)nc(-c3ccccc3O)c2c1N [Example 183] | 0.1 to 10 | 30 to 60 | –
13 | NC(=O)c1nc(-c2ccc(Cl)c(Cl)c2)c2c(N)c(C(N)=O)sc2n1 [Example 193] | 0.1 to 10 | – | 20 to 30
14 | CCCCNc1nc(-c2ccc(Cl)c(Cl)c2)c2c(N)c(C(N)=O)sc2n1 [Example 223] | 0.1 to 10 | – | –
15 | CC(C)[C@H](CO)Nc1nc(-c2ccc(Cl)c(Cl)c2)c2c(N)c(C(N)=O)sc2n1 [Example 198] | 0.1 to 10 | – | 10 to 20
16 | NC(=O)c1sc2nc(NC3CC3)nc(-c3ccccc3OCc3ccccc3)c2c1N [Example 182] | 30 to 60 | 30 to 60 | –
17 | NC(=O)c1sc2nc(NC3CC3)nc(-c3ccnc(O)c3)c2c1N [Example 237] | 10 to 20 | > 60 | –
18 | NC(=O)c1sc2nc(CC(=O)O)nc(-c3ccc(Cl)c(Cl)c3)c2c1N [Example 255] | 0.1 to 10 | > 60 | –
19 | COc1cccc(-c2nc(N)nc3sc(C(N)=O)c(N)c23)c1 [Example 184] | 0.1 to 10 | 20 to 30 | –
20 | NC(=O)c1sc2nc(NC3CC3)nc(-c3ccc(C(F)(F)F)cc3)c2c1N [Example 235] | 0.1 to 10 | 20 to 30 | –
21 | NC(=O)c1sc2nc(NC3CC3)nc(-c3cccc([N+](=O)[O-])c3)c2c1N [Example 244] | 0.1 to 10 | 30 to 60 | –
22 | CC(C)(CN1CCCC1)Nc1nc(-c2ccc(Cl)c(Cl)c2)c2c(N)c(C(N)=O)sc2n1 [Example 216] | 0.1 to 10 | 10 to 20 | –

Other lines, results leading:

Row | IC50 [1] [µM] | IC50 ([2]; Homo sapiens, A-375, 72 h) [µM] | IC50 [2] [µM] | SMILES
23 | 0.1 to 10 | 10 to 20 | – | CC(O)CCNc1nc(-c2ccc(Cl)c(Cl)c2)c2c(N)c(C(N)=O)sc2n1 (centres unmarked) [Example 221]
24 | – | 10 to 20 | – | COc1cncc(-c2nc(N[C@@H](C)CO)nc3sc(C(N)=O)c(N)c23)c1 [Example 177]
25 | 0.1 to 10 | 10 to 20 | – | NC(=O)c1sc2ncnc(-c3cc(O)c4c(c3)OCC4)c2c1N [Example 267]
26 | – | 0.1 to 10 | – | COc1cncc(-c2nc(N)nc3sc(C(N)=O)c(N)c23)c1 [Example 277]
27 | 0.1 to 10 | 10 to 20 | – | NC(=O)c1sc2nc(NC3(CO)CCC3)nc(-c3ccc(Cl)c(Cl)c3)c2c1N [Example 281]
28 | – | 10 to 20 | – | NC(=O)c1sc2ncnc(-c3cccc([N+](=O)[O-])c3)c2c1N [Example 289]
29 | 0.1 to 10 | 10 to 20 | – | NC(=O)c1sc2ncnc(-c3cccc(NC(=O)Nc4cccnc4)c3)c2c1N [Example 293]
30 | 0.1 to 10 | 10 to 20 | – | CCOc1nc(-c2cccc(C(F)F)c2)c2c(N)c(C(N)=O)sc2n1 [Example 285]
31 | 0.1 to 10 | 10 to 20 | – | CC(C)(CO)Nc1nc(-c2cccc(C(F)F)c2)c2c(N)c(C(N)=O)sc2n1 [Example 286]
32 | – | 0.1 to 10 | – | NC(=O)c1sc2ncnc(-c3cccc(Nc4nc5cc(C(F)(F)F)ccc5[nH]4)c3)c2c1N [Example 287]
33 | 30 to 60 | 10 to 20 | – | COc1ccnc(-c2nc(NC(C)(C)CO)nc3sc(C(N)=O)c(N)c23)c1 [Example 284]
34 | – | 10 to 20 | – | NC(=O)c1sc2ncnc(-c3cccc(NC(=O)Nc4ccccn4)c3)c2c1N [Example 294]
35 | 0.1 to 10 | 10 to 20 | – | NC(=O)c1sc2ncnc(-c3cccc(Nc4nc5cc(C(F)(F)F)ccc5o4)c3)c2c1N [Example 288]
36 | 30 to 60 | 0.1 to 10 | – | NC(=O)c1sc2nc(NC3CC3)nc(Nc3ccc(Cl)c(Cl)c3)c2c1N [Example 279]
37 | 0.1 to 10 | 10 to 20 | – | COc1cc(-c2nc(NC3CC3)nc3sc(C(N)=O)c(N)c23)ccc1C(F)(F)F [Example 233]
38 | 0.1 to 10 | 10 to 20 | – | CC(C)(CO)Nc1nc(-c2cncc(O)c2)c2c(N)c(C(N)=O)sc2n1 [Example 180]
39 | 0.1 to 10 | 10 to 20 | – | CC(C)[C@@H](CO)Nc1nc(-c2ccc(Cl)c(Cl)c2)c2c(N)c(C(N)=O)sc2n1 [Example 272]
40 | – | 10 to 20 | – | COc1cc(-c2nc(NC(C)(C)CO)nc3sc(C(N)=O)c(N)c23)cc(Cl)c1Cl [Example 263]
41 | 0.1 to 10 | 10 to 20 | – | CC(C)(C)Nc1nc(-c2ccc(Cl)c(Cl)c2)c2c(N)c(C(N)=O)sc2n1 [Example 209]
42 | 0.1 to 10 | 10 to 20 | – | NC(=O)c1sc2nc(N[C@@H]3CCOC3)nc(-c3ccc(Cl)c(Cl)c3)c2c1N [Example 229]
43 | – | 10 to 20 | – | COc1ccc(NC(=O)Nc2cccc(-c3ncnc4sc(C(N)=O)c(N)c34)c2)cc1 [Example 283]
44 | – | 10 to 20 | – | NC(=O)c1sc2ncnc(-c3cccc(N)c3)c2c1N [Example 290]
45 | – | 10 to 20 | – | C[C@@H](CO)Oc1nc(-c2ccc(Cl)c(Cl)c2)c2c(N)c(C(N)=O)sc2n1 [Example 211]
46 | 30 to 60 | 10 to 20 | – | CC(C)(CO)Nc1nc(-c2cncc(OCc3ccccc3)c2)c2c(N)c(C(N)=O)sc2n1 [Example 179]
47 | 0.1 to 10 | 0.1 to 10 | – | NC(=O)c1sc2nc(NC3CNC3)nc(-c3ccc(Cl)c(Cl)c3)c2c1N [Example 227]
48 | 0.1 to 10 | 10 to 20 | – | CC(C)(O)CNc1nc(-c2ccc(Cl)c(Cl)c2)c2c(N)c(C(N)=O)sc2n1 [Example 215]
49 | 0.1 to 10 | 10 to 20 | – | CCc1cncc(-c2nc(NC(C)(C)CO)nc3sc(C(N)=O)c(N)c23)c1 [Example 178]
50 | > 60 | 10 to 20 | – | NC(=O)c1sc2ncnc(-c3cc4c(c(OCc5ccccc5)c3)CCO4)c2c1N [Example 266]
